The values below come from ChEMBL document CHEMBL3272117, “Synthesis of 1-(4-thio-beta-D-ribofuranosyl)-1,2,4-triazole-3-carboxamide” (J Med Chem, 1976).

One assay concerns Human alphaherpesvirus 1. Nature of the assay: Antiviral activity against Herpes simplex virus type 1 infected in human KB cells. Type of assay: functional, organism-based.
Another assay has as its system Human respirovirus 3. Nature of the assay: Antiviral activity against Parainfluenza virus type 3 infected in human KB cells. Type of assay: functional, organism-based.
The next assay deals with KB. Description: Antiviral activity against Rhinovirus type 13 infected in human KB cells. Type of assay: functional, cell-based. As to conditions: Human rhinovirus A13.

SMILES strings stand for the structures. Calls of active or inactive are those of the source. No cut-off for these calls is given here.

In the case of `NC(=O)c1ncn([C@@H]2O[C@H](CO)[C@@H](O)[C@H]2O)n1`, the outcome in the assay with Human alphaherpesvirus 1, with Human respirovirus 3 and with KB was Active.
Regarding `NC(=O)c1ncn([C@@H]2S[C@H](CO)[C@@H](O)[C@H]2O)n1`, the result in the assay with Human alphaherpesvirus 1 was Active.
